Like-named read-outs stand apart in the source and are kept apart here.
Legend:
[1] = tested on: HCT116-MTAP-KO (MTAP null) cells; assay: Proliferation inhibition of HCT116 MTAP-KO cells in vitro (CellTiter Glo, 6 days); assay type: cell-based; settings: read-out: Cell proliferation inhibition rate HCT116-MTAP null IC50 (nm)
HCT116 MTAP WT cells = assay: Proliferation inhibition of HCT116 cells in vitro (CellTiter Glo, 6 days); assay type: cell-based; settings: read-out: Cell proliferation inhibition rate HCT116 MTAP WT IC50 (nm)

SMILES | IC50 ([1]; HCT116-MTAP null, 144 h) | IC50 (HCT116 MTAP WT cells; Homo sapiens, HCT-116, 144 h) | IC50 [1] | IC50 (HCT116 MTAP WT cells)
Cn1cc(N(Cc2nc3ccc(C(F)(F)F)cn3c2F)C(=O)c2ccc3nc(N)c4c(c3c2)COC4)cn1 [Example 91] | < 100 nM | 1000 to 10000 nM | – | –
Cc1nn(C)cc1N(Cc1nc2ccccc2[nH]1)C(=O)c1cc2c(cc1F)nc(N)c1c(C)ncn12 [Example 237] | 100 to 1000 nM | 1000 to 10000 nM | – | –
Cc1ncc2c(N)nc3cc(F)c(C(=O)N4C(C)COC[C@@H]4c4cn5ccccc5n4)cc3n12 (stereo partly drawn) [Example 176] | 100 to 1000 nM | 1000 to 10000 nM | – | –
Cc1ncc2c(N)nc3cc(F)c(C(=O)N(Cc4nc5ccc(S(F)(F)(F)(F)F)cc5[nH]4)CC(C)C)cc3n12 [Example 139] | < 100 nM | 1000 to 10000 nM | – | –
Cc1cc2cc(C(=O)N(Cc3cc4ccccn4n3)C(C)c3ncccn3)ccc2nc1N (stereo not drawn) [Example 120] | < 100 nM | 1000 to 10000 nM | – | –
Cc1ncn2c1c(N)nc1cc(F)c(C(=O)N(Cc3cn4cc(C(F)(F)F)ccc4n3)c3cnn(C)c3)cc12 [Example 259] | < 100 nM | 1000 to 10000 nM | – | –
CCn1cc(N(Cc2cn3cc(C(F)(F)F)ccc3n2)C(=O)c2ccc3nc(N)c4c(c3c2)COC4)c(C)n1 [Example 95] | < 100 nM | 1000 to 10000 nM | – | –
CCN(C(=O)c1cc2c(cc1F)nc(N)c1cnc(C)n12)C1COc2cc(C(F)(F)F)ccc21 (stereo not drawn) [Example 222] | < 100 nM | 1000 to 10000 nM | – | –
CC1OCc2c1c(N)nc1ccc(C(=O)N(Cc3cn4cc(C(F)(F)F)ccc4n3)c3cnn(C)c3)cc21 (stereo not drawn) [Example 42, 4-Amino-3-methyl-N-(1-methyl-1H-pyrazol-4-yl)-N-((6-(trifluoromethyl)imidazolo[1,2-a]pyridin-2-yl)methyl)-1,3-dihydrofurano[3,4-c]quinolin-8-carboxamide] | < 100 nM | 1000 to 10000 nM | – | –
Cc1cn2c(n1)c(N)nc1ccc(C(=O)N3C(C)COC[C@@H]3c3cn4ccccc4n3)cc12 (stereo partly drawn) [Example 168] | 100 to 1000 nM | 1000 to 10000 nM | – | –
CC(c1ncccn1)N(Cc1nc2ccccn2n1)C(=O)c1ccc2nc(N)c3c(c2c1)CCC3 (stereo not drawn) [Example 155] | 100 to 1000 nM | 1000 to 10000 nM | – | –
C[C@H]1OCc2c1c(N)nc1ccc(C(=O)N(Cc3cn4c(C(F)(F)F)cccc4n3)c3cnn(C)c3)cc21 [Example 72] | 1000 to 10000 nM | 1000 to 10000 nM | – | –
COCCN(Cc1cn2cc(C(F)(F)F)ccc2n1)C(=O)c1ccc2nc(N)c3c(c2c1)COC3C (stereo not drawn) [Example 41] | < 100 nM | 1000 to 10000 nM | – | –
CCN(Cc1cc2ccccn2n1)C(=O)c1ccc2nc(N)c3c(c2c1)COC3C (stereo not drawn) [Example 121] | 100 to 1000 nM | 1000 to 10000 nM | – | –
COC1CCCC1N(Cc1cn2cc(C(F)(F)F)ccc2n1)C(=O)c1ccc2nc(N)c3c(C)ncn3c2c1 (stereo not drawn) [Example 294] | < 100 nM | 1000 to 10000 nM | – | –
CC(C)CN(Cc1cn2ccccc2n1)C(=O)c1ccc2nc(N)c3c(c2c1)CO[C@H]3C [Example 55] | < 100 nM | 1000 to 10000 nM | – | –
CCN(Cc1cn2ccccc2n1)C(=O)c1ccc2nc(N)c3ncc(C)n3c2c1 [Example 279] | 100 to 1000 nM | 1000 to 10000 nM | – | –
Cc1nn(C)cc1N(Cc1cc2ccccn2n1)C(=O)c1cc2c(cc1F)nc(N)c1cnc(C)n12 [Example 227] | < 100 nM | 1000 to 10000 nM | – | –
CCN(Cc1cn2ccccc2n1)C(=O)c1ccc2nc(N)c3c(c2c1)CO[C@H]3C [Example 47] | < 100 nM | 1000 to 10000 nM | – | –

SMILES | IC50 ([1]; HCT116-MTAP null, 144 h) | IC50 (HCT116 MTAP WT cells; Homo sapiens, HCT-116, 144 h) | IC50 [1] | IC50 (HCT116 MTAP WT cells)
Cn1cc(N(Cc2cn3cc(C(F)(F)F)ccc3n2)C(=O)c2ccc3nc(N)c4c(c3c2)OCC4)cn1 [Example 113] | 100 to 1000 nM | 1000 to 10000 nM | – | –
CCN(C(=O)c1cc2c(cc1F)nc(N)c1c(C)ncn12)C1COc2cc(-c3cccnc3)ccc21 (stereo not drawn) [Example 223] | 100 to 1000 nM | 1000 to 10000 nM | – | –
CC(c1ncccn1)N(Cc1cc2ccccn2n1)C(=O)c1ccc2nc(N)c3c(c2c1)CCC3 (stereo not drawn) [Example 116] | < 100 nM | 1000 to 10000 nM | – | –
Cc1ncn2c1c(N)nc1ccc(C(=O)N(CC(C)C)C(C)c3cn4cc(C(F)(F)F)ccc4n3)cc12 (stereo not drawn) [Example 296] | 100 to 1000 nM | 1000 to 10000 nM | – | –
COCCN(C(=O)c1cc2c(cc1F)nc(N)c1cnn(C)c12)C(C)c1cn2ccccc2n1 (stereo not drawn) [Example 60] | < 100 nM | 1000 to 10000 nM | – | –
Cc1ccc2nc(CN(C(=O)c3ccc4nc(N)c5c(c4c3)COC5C)c3cnn(C)c3)cn2c1 (stereo not drawn) [Example 75] | < 100 nM | 1000 to 10000 nM | – | –
Cc1ncc2c(N)nc3cc(F)c(C(=O)N(Cc4cn5cc(C(F)(F)F)ccc5n4)c4cnn(C)c4)cc3n12 [Example 183] | < 100 nM | 1000 to 10000 nM | – | –
Cc1nn(C)cc1N(Cc1cn2cc(C(F)(F)F)ccc2n1)C(=O)c1cc2c(cc1F)nc(N)c1cnn(C)c12 [Example 104] | – | – | < 100 nM | 100 to 1000 nM
CCN(C(=O)c1cc2c(cc1F)nc(N)c1cnc(C)n12)C(C)c1cn2ccccc2n1 (stereo not drawn) [Example 163] | 100 to 1000 nM | 1000 to 10000 nM | – | –
Cc1nn(C)cc1N(Cc1cn2cc(C(F)(F)F)ccc2n1)C(=O)c1ccc2nc(N)c3c(cnn3C)c2c1 [Example 105] | < 100 nM | 1000 to 10000 nM | – | –
Cc1nn(C)cc1N(Cc1cn2cc(C(F)(F)F)ccc2n1)C(=O)c1cc2c(cc1F)nc(N)c1c(C)ncn12 [Example 233] | < 100 nM | 1000 to 10000 nM | – | –
CCN(Cc1cn2cc(-c3cnn(C)c3)ccc2n1)C(=O)c1cc2c(cc1F)nc(N)c1cnc(C)n12 [Example 247] | 100 to 1000 nM | 1000 to 10000 nM | – | –
CC1OCc2c1c(N)nc1ccc(C(=O)N(Cc3cn4ccccc4n3)C34CC(C3)C4)cc21 (stereo not drawn) [Example 56] | 100 to 1000 nM | 1000 to 10000 nM | – | –
CCN(C(=O)c1cc2c(cc1F)nc(N)c1c(C)ncn12)C1COc2cc(Br)cnc21 (stereo not drawn) [Example 228] | 100 to 1000 nM | 1000 to 10000 nM | – | –
CCN(Cc1cn2cc(CN3CCOCC3)ccc2n1)C(=O)c1cc2c(cc1F)nc(N)c1c(C)ncn12 [Example 249] | 100 to 1000 nM | 1000 to 10000 nM | – | –
C[C@@H]1OCc2c1c(N)nc1ccc(C(=O)N(Cc3cn4c(C(F)(F)F)cccc4n3)c3cnn(C)c3)cc21 [Example 73] | < 100 nM | 1000 to 10000 nM | – | –
CC1OCc2c1c(N)nc1ccc(C(=O)N(Cc3nc4ccc(C(F)(F)F)cn4c3F)c3cnn(C)c3)cc21 (stereo not drawn) [Example 71] | < 100 nM | 1000 to 10000 nM | – | –
CCN(Cc1cn2ccccc2n1)C(=O)c1cc2c3c(c(N)nc2cc1F)COC3 [Example 86] | < 100 nM | 1000 to 10000 nM | – | –
Cc1ncc2c(N)nc3cc(F)c(C(=O)N(Cc4cn5cc(C(F)(F)F)ccc5n4)c4ccnn4C(F)F)cc3n12 [Example 246] | < 100 nM | 1000 to 10000 nM | – | –

SMILES | IC50 ([1]; HCT116-MTAP null, 144 h) | IC50 (HCT116 MTAP WT cells; Homo sapiens, HCT-116, 144 h) | IC50 [1] | IC50 (HCT116 MTAP WT cells)
Cc1nn(C)cc1N(Cc1cn2cc(C(F)(F)F)ccc2n1)C(=O)c1ccc2nc(N)c3c(c2c1)CO[C@@H]3C [Example 305, (3R)-4-Amino-N-(1,3-dimethylpyrazol-4-yl)-3-methyl-N-[[6-(trifluoromethyl)imidazo[1,2-a]pyridin-2-yl]methyl]-1,3-dihydrofurano[3,4-c]quinolin-8-carboxamide] | < 100 nM | 1000 to 10000 nM | – | –
CCN(Cc1cc2ccccn2n1)C(=O)c1cc2c(cc1F)nc(N)c1cnc(C)n12 [Example 250] | < 100 nM | 1000 to 10000 nM | – | –
COC1CCC1N(Cc1cn2cc(C(F)(F)F)ccc2n1)C(=O)c1cc2c(cc1F)nc(N)c1c(C)ncn12 (stereo not drawn) [Example 284] | < 100 nM | 100 to 1000 nM | – | –
Cc1cc(N(Cc2cn3cc(C(F)(F)F)ccc3n2)C(=O)c2ccc3nc(N)c4c(c3c2)COC4)n(C)n1 [Example 98] | < 100 nM | 1000 to 10000 nM | – | –
CCN(Cc1cn2ccccc2n1)C(=O)c1cc2c(cc1Cl)nc(N)c1cnc(C)n12 [Example 192] | 100 to 1000 nM | 1000 to 10000 nM | – | –
CCN(C(=O)c1cc2c(cc1F)nc(N)c1c(C)ncn12)C1COc2cc(C(F)(F)F)ccc21 (stereo not drawn) [Example 215] | < 100 nM | 1000 to 10000 nM | – | –
Cc1ncc2c(N)nc3cc(F)c(C(=O)N(Cc4cc5ccccn5n4)C4CCOC4)cc3n12 (stereo not drawn) [Example 232] | 100 to 1000 nM | 1000 to 10000 nM | – | –
Cc1ncc2c(N)nc3cc(F)c(C(=O)N(Cc4cn5ccccc5n4)C45CC(C4)C5)cc3n12 [Example 169] | < 100 nM | 100 to 1000 nM | – | –
CCN(C(=O)c1ccc2nc(N)c3c(C)ncn3c2c1)C(C)c1cn2ccccc2n1 (stereo not drawn) [Example 298] | 100 to 1000 nM | 1000 to 10000 nM | – | –
COC1CC(N(Cc2cn3ccccc3n2)C(=O)c2cc3c(cc2F)nc(N)c2cnn(C)c23)C1 (stereo not drawn) [Example 45] | < 100 nM | 1000 to 10000 nM | – | –
CC(C)CN(Cc1nc2ccc(C(F)(F)F)cc2[nH]1)C(=O)c1ccc2nc(N)c3c(c2c1)COC3 [Example 131] | 100 to 1000 nM | 1000 to 10000 nM | – | –
Cc1cc2cc(C(=O)N(Cc3cn4cc(C(F)(F)F)ccc4n3)c3cn(C)nc3C)ccc2nc1N [Example 103] | 100 to 1000 nM | 1000 to 10000 nM | – | –
Cn1ncc(N(Cc2cn3cc(C(F)(F)F)ccc3n2)C(=O)c2cc3c4c(c(N)nc3cc2F)COC4)n1 [Example 88] | < 100 nM | 1000 to 10000 nM | – | –
Cn1ncc2c(N)nc3cc(F)c(C(=O)N(Cc4cn5ccccc5n4)C45CC(C(F)(F)F)(C4)C5)cc3c21 [Example 62] | < 100 nM | 1000 to 10000 nM | – | –
Cc1ncn2c1c(N)nc1cc(F)c(C(=O)N(Cc3cn4ccccc4n3)c3cnn(C)c3)cc12 [Example 257] | 100 to 1000 nM | 1000 to 10000 nM | – | –
CCN(Cc1cn2ccccc2n1)C(=O)c1cc2c(cc1F)nc(N)c1cnc(C)n12 [Example 184] | 100 to 1000 nM | 1000 to 10000 nM | – | –
Cc1ncn2c1c(N)nc1cc(F)c(C(=O)N(CCC#N)Cc3cn4ccccc4n3)cc12 [Example 264] | 100 to 1000 nM | 1000 to 10000 nM | – | –
Cc1ncc2c(N)nc3cc(F)c(C(=O)N(Cc4nc5ccccn5c4F)CC(C)C)cc3n12 [Example 194] | < 100 nM | 1000 to 10000 nM | – | –
CCN(C(=O)c1ccc2nc(N)c3c(c2c1)COC3)C(C)c1cc2ccccn2n1 (stereo not drawn) [Example 119, 4-Amino-N-ethyl-N-(1-(pyrazolo[1,5-a]pyridin-2-yl)ethyl)-1,3-dihydrofurano[3,4-c]quinolin-8-carboxamide] | < 100 nM | 1000 to 10000 nM | – | –
